Source: publication PMC8365602 (Journal of Medicinal Chemistry, 2021)

What was measured:
PMNL = experiment: Intracellular uptake by PMNL; format: cell-based, human; details: 150 nM for 20 min
Method: Cells were centrifuged (1200g, 5 min, 4 °C) and washed thrice with PBS pH 7.4 with 0.1% fatty-acid-free BSA (Sigma-Aldrich). Compounds were extracted and analyzed by UPLC-MS/MS as described below for LCMs and derivatives. The intracellular concentrations of 27a and 12a were calculated assuming a spherical cell shape with a diameter of 13 μm (as measured using a Vi-CELL Series Cell Counter, Beckman Coulter, Krefeld, Germany) and an equal intracellular distribution. 13d (9 pmol) was used as the internal standard.

mPGES-1 = mPGES-1 (Homo sapiens, UniProt O14684); experiment: mPGES-1 activity in microsomal preparations of IL-1β-treated A549 cells; format: biochemical; details: 10 μM
Sequence of mPGES-1 (O14684 whole entry): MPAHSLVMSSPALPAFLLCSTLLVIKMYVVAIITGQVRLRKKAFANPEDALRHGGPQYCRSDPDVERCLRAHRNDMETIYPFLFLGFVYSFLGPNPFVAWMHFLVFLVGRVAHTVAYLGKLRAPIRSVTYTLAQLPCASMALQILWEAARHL
Method: Confluent cells were detached by trypsin-EDTA (GE Healthcare) and reseeded at a density of 1 × 10^4 cells/cm^2.
Differential centrifugation at 10 000g for 10 min and 174 000g for 1 h at 4 °C yielded the microsomal fraction. The pellet was resuspended in homogenization buffer and diluted in 0.1 M potassium phosphate buffer pH 7.4 containing 2.5 mM glutathione. Microsomal membranes (adjusted to 2.5–5 μg total protein) were preincubated with 27a for 15 min at 4 °C. The mPGES-1 substrate PGH2 (20 μM) was added to induce PGE2 formation.

COX-1 = target: T1, COX-1 (Homo sapiens, UniProt P23219); experiment: Platelet COX-1 activity (12-HHT formation); format: cell-based
T1 construct: Freshly isolated platelets (1 × 10^8) were preincubated with vehicle (DMSO) or 27a; endogenous in cells; host or cells: freshly isolated human platelets
T1 sequence (P23219 24-599): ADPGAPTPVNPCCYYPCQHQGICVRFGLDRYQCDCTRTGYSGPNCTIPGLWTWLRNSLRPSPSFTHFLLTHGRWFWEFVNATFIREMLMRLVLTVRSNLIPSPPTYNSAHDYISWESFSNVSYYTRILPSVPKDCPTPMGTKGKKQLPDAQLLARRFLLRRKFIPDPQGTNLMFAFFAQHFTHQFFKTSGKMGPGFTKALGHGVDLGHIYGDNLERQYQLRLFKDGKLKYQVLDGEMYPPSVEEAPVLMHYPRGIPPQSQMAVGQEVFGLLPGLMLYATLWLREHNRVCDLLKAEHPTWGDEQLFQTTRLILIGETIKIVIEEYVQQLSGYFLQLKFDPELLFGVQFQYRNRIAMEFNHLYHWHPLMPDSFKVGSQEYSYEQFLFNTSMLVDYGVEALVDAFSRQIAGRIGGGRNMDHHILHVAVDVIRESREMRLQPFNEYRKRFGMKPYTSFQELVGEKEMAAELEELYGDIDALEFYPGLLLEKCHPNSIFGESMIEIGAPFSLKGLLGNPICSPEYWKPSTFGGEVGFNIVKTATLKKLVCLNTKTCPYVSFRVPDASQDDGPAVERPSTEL
Method: Freshly isolated platelets (1 × 10^8) were preincubated with vehicle (DMSO) or 27a for 5 min at room temperature. Arachidonic acid (5 μM) was added to induce 12-HHT formation.

CYP3A4 = CYP3A4 expression in differentiated HepaRG cells; format: cell-based, human; details: 48 h
Method: HepaRG cells were seeded at a density of 2.6 × 10^4 cells/cm^2 in Williams’ E medium supplemented with 2 mM GlutaMAX (Thermo Fisher Scientific, Waltham, MA), 100 U/mL penicillin, 100 μg/mL streptomycin, 10% HyClone FCS (Thermo Fisher Scientific), 5 μg/mL insulin, and […] hydrocortisone-hemisuccinate. At confluence after two weeks, HepaRG cells were shifted to a medium supplemented with 1.7% DMSO for two additional weeks to obtain confluent differentiated cultures containing equal proportions of hepatocyte-like and progenitors/primitive biliary-like cells. These differentiated hepatic cell cultures were exposed to the compounds in Williams’ E medium supplemented with 2% FCS plus 0.2% DMSO for 48 h. […]
The assay plate was imaged and analyzed using the Cell Health Profiling BioApplications (HCS Studio Cellomics software Version x.6.4.3 (Build 7207)) on the ArrayScan VTI HCS Reader (Thermo Fisher Scientific—Cellomics, Pittsburgh, PA) using the 20× objective (Zeiss, LD Plan Neofluar 20×/0.4 korr). […]
The CYP3A4 expression was quantified using an arbitrary unit of fluorescent mass representing the combination of intensity and area adjusted to cell number calculated by nuclei counting (Hoechst).

PBMC = PBMC viability (MTT, mitochondrial dehydrogenase activity); format: cell-based, human; details: ≤1 μM, 24 h
Method: To measure mitochondrial dehydrogenase activity, 3-(4,5-dimethylthiazol-2-yl)-2,5-diphenyltetrazolium bromide (MTT) (20 μL, 5 mg/mL, Sigma-Aldrich) was added to PBMC. After 4 h in the darkness, the formed formazan product was solubilized (10% SDS in 20 mM HCl) and the absorbance was read at 570 nm using a Multiskan Spectrum microplate reader (Thermo Fisher Scientific).[81]

[1] = Concentrations and metabolism of compound in mice with zymosan-induced peritonitis; format: in vivo
Method: LCMs, 27a, and 27a metabolites were extracted from PMNL, medium of the liver-on-chip, murine plasma, peritoneal exudate, or homogenized murine tissue as described.[6] In brief, PBS pH 7.4, methanol, chloroform, and saline (final ratio: 14:34:35:17) were successively added together with 13d (9 pmol) as the internal standard. The organic layer was evaporated, and the extracted LCMs were dissolved in methanol.
LCMs, 27a, and 27a metabolites were separated at a flow rate of 0.8 mL/min and a column temperature of 45 °C, with acetonitrile/H2O (10:90) as mobile phase A and acetonitrile as mobile phase B, both acidified with 0.07% formic acid. The linear gradient from A/B = 50:50 to 0:100 within 4.5 min was followed by isocratic elution with A/B = 0:100 for 1 min. MS parameters were adjusted according to Pein et al.[6] and as detailed in Table S3. Signal intensities were normalized to the internal standard 13d, and concentrations were calculated using external calibration curves as specified in Table S3.
Zymosan (2 mg/mL in saline, i.p., 0.5 mL, Sigma-Aldrich) was injected at 30 min (i.p.) or 60 min (p.o.) post compound administration. Mice were sacrificed by inhalation of CO2 after another 30 min to determine LTC4 levels, lipid mediator profiles, metabolites, and vascular permeability and after 4 h to analyze LTB4 levels and cell infiltration.[72] Plasma and peritoneal exudates were collected, and cells were counted in exudates after trypan blue staining. Vascular permeability was measured by injection of Evans blue dye (40 mg/kg in saline, 0.3 mL, Sigma-Aldrich) into the tail vain directly before peritonitis induction.[72] The exudate was centrifuged (3000g, 5 min), and the absorbance was measured at 610 nm (DU730 spectrophotometer, Beckman Coulter, Krefeld, Germany). Levels of LTB4 and cysteinyl-LTs (dominated by LTC4) were quantified in the exudate by ELISA (Enzo Life Sciences, Lörrach, Germany) according to the manufacturer’s instructions. Compound 27a, its metabolites, and lipid mediators were extracted and analyzed by UPLC-MS/MS.

C/C(=C\CC/C(C)=C/CC[C@]1(C)CCc2c(C)c(O)c(C)c(C)c2O1)CCC=C(CO)CO [Compound 27a, α-amplexichromanol]
Intracellular accumulation in PMNL (PMNL): strongly accumulates in PMNL | mPGES-1 activity (mPGES-1): decreased mPGES-1 activity | COX-1 inhibition within human platelets (COX-1): not substantially inhibited | CYP450 enzyme (CYP3A4) expression (CYP3A4): did not induce CYP450 enzyme expression | Mitochondrial dehydrogenase activity in PBMC (cell viability) (PBMC): impaired neither mitochondrial dehydrogenase activity | concentration at 90 min ([1]; CD-1, mouse, plasma, po, mice with acute peritonitis, 10 mg/kg p.o., 90 min post administration): 30 to 900 nM | Side-chain degradation in mice ([1]; mice, 10 mg/kg p.o., plasma): resistant to degradation | Time to uptake after oral administration ([1]; mice, p.o.): ≤ 1 h | Concentrations in the peritoneal exudate ([1]; mice, peritonitis, oral administration 30 mg/kg): 0.5 to 4 nM
